Experimental data reported in US20240239781A1, “1H-PYRAZOLE DERIVATIVES AS SIGMA LIGANDS” (ACONDICIONAMIENTO TARRASENSE, priority 2021, published 2024).

Key:
human σ1 receptor = target: T1, human σ1 receptor (Homo sapiens, UniProt Q99720); experiment: Human σ1 receptor radioligand assay ([3H](+)-pentazocine, transfected HEK-293 membranes); settings: class scale, read-out: Binding σ-1 Ki
T1 construct: expressed in transfected cells; host or cells: HEK-293
Method in brief: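 Compounds were tested at a single 1 or 10 μM concentration (% inhibition) or at five concentrations to give Ki. They competed with 5 nM [3H](+)-pentazocine for transfected HEK-293 membranes (7 μg) in 50 mM Tris-HCl pH 8 at 37° C for 120 minutes. Nonspecific binding was set with 10 μM haloperidol, and a filtration scintillation read-out was used.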

human σ2/TMEM97 receptor = target: T2, human σ2/TMEM97 receptor (Homo sapiens, UniProt Q5BJF2); experiment: Binding assay to human σ2/TMEM97 receptor ([3H]-DTG, transfected HEK-293 membranes); settings: class scale, read-out: Binding σ-2 Ki
T2 construct: expressed in transfected cells; host or cells: HEK-293
T2 sequence (Q5BJF2 whole entry): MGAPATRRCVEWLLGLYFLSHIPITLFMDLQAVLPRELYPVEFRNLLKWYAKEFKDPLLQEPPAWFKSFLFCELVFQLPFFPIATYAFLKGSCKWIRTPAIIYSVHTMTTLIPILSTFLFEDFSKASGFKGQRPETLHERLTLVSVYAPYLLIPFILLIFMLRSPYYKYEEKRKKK
Method in brief: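 Competition against 10 nM [3H]-DTG (Tris-HCl 50 mM, pH 8.0, 25 °C, 120 min) using 15 μg transfected HEK-293 membrane protein, with 10 μM haloperidol defining NSB. Bound radioactivity counted after filtration; results as single-point % inhibition (1 or 10 μM) or five-point Ki.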

T1 sequence (Q99720 whole entry): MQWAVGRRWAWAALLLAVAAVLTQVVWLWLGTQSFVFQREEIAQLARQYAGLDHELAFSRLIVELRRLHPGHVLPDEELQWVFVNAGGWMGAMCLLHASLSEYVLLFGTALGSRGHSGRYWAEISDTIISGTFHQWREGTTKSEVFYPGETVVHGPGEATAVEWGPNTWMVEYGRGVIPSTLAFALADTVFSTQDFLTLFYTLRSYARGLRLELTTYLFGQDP

| SMILES | Ki (human σ1 receptor) [nM] | Ki (human σ2/TMEM97 receptor) [nM] |
| --- | --- | --- |
| Cn1cc(-c2nn(C)c(Cl)c2C(=O)N2CCC3(CCN(CCC(C)(C)C)CC3)CC2)cn1 [Example 178, (5-Chloro-1,1′-dimethyl-1H,1′H-[3,4′-bipyrazol]-4-yl)(9-(3,3-dimethylbutyl)-3,9-diazaspiro[5.5]undecan-3-yl)methanone] | > 1000 | 100 to 500 |
| CCn1ccc(-c2nn(C)c(Cl)c2C(=O)N2CCC3(CCN(CCC(C)(C)C)CC3)CC2)n1 [Example 179, (5-Chloro-1′-ethyl-1-methyl-1H,1′H-[3,3′-bipyrazol]-4-yl)(9-(3,3-dimethylbutyl)-3,9-diazaspiro[5.5]undecan-3-yl)methanone] | > 1000 | < 100 |
| Cn1nc(-c2cccc(C(F)(F)F)n2)c(C(=O)N2CCC3(CCN(CCC(C)(C)C)CC3)CC2)c1Cl [Example 180, (5-Chloro-1-methyl-3-(6-(trifluoromethyl)111ndecane-2-yl)-1H-pyrazol-4-yl)(9-(3,3-dimethylbutyl)-3,9-diazaspiro[5.5]111ndecane-3-yl)methanone] | 100 to 500 | < 100 |
| Cn1ccc(-c2nn(C)c(Cl)c2C(=O)N2CCC3(CCN(CCC(C)(C)C)CC3)CC2)n1 [Example 181, (5-Chloro-1,1′-dimethyl-1H,1′H-[3,3′-bipyrazol]-4-yl)(9-(3,3-dimethylbutyl)-3,9-diazaspiro[5.5]undecan-3-yl)methanone] | > 1000 | 100 to 500 |
| CCCn1nc(-c2cc(C)on2)c(C(=O)N2CCC3(CCN(CCC(C)(C)C)CC3)CC2)c1Cl [Example 182, (5-Chloro-3-(5-methylisoxazol-3-yl)-1-propyl-1H-pyrazol-4-yl)(9-(3,3-dimethylbutyl)-3,9-diazaspiro[5.5]undecan-3-yl)methanone] | 100 to 500 | < 100 |
| Cc1cc(-c2nn(C(C)C)c(Cl)c2C(=O)N2CCC3(CCN(CCC(C)(C)C)CC3)CC2)no1 [Example 183, (5-Chloro-1-isopropyl-3-(5-methylisoxazol-3-yl)-1H-pyrazol-4-yl)(9-(3,3-dimethylbutyl)-3,9-diazaspiro[5.5]undecan-3-yl)methanone] | 500 to 1000 | < 100 |
| CCn1nc(-c2cc(C)on2)c(C(=O)N2CC3(CCN(CCC(C)(C)C)CC3)C2)c1Cl [Example 184, (5-Chloro-1-ethyl-3-(5-methylisoxazol-3-yl)-1H-pyrazol-4-yl)(7-(3,3-dimethylbutyl)-2,7-diazaspiro[3.5]nonan-2-yl)methanone] | 100 to 500 | < 100 |
| CCCn1nc(-c2cc(C)on2)c(C(=O)N2CC3(CCN(CCC(C)(C)C)CC3)C2)c1Cl [Example 185, (5-Chloro-3-(5-methylisoxazol-3-yl)-1-propyl-1H-pyrazol-4-yl)(7-(3,3-dimethylbutyl)-2,7-diazaspiro[3.5]nonan-2-yl)methanone] | 100 to 500 | < 100 |
| CCOc1cccc(-c2nn(C)c(Cl)c2C(=O)N2CCC3(CCN(CCC(C)(C)C)CC3)CC2)n1 [Example 186, (5-Chloro-3-(6-ethoxypyridin-2-yl)-1-methyl-1H-pyrazol-4-yl)(9-(3,3-dimethylbutyl)-3,9-diazaspiro[5.5]undecan-3-yl)methanone] | 100 to 500 | < 100 |
| CCn1nc(-c2ccon2)c(C(=O)N2CC3(CCN(CCC(C)(C)C)CC3)C2)c1Cl [Example 187, (5-Chloro-1-ethyl-3-(isoxazol-3-yl)-1H-pyrazol-4-yl)(7-(3,3-dimethylbutyl)-2,7-diazaspiro[3.5]nonan-2-yl)methanone] | 500 to 1000 | < 100 |
| Cc1cc(-c2nn(C(C)C)c(Cl)c2C(=O)N2CC3(CCN(CCC(C)(C)C)CC3)C2)no1 [Example 188, (5-Chloro-1-isopropyl-3-(5-methylisoxazol-3-yl)-1H-pyrazol-4-yl)(7-(3,3-dimethylbutyl)-2,7-diazaspiro[3.5]nonan-2-yl)methanone] | 500 to 1000 | < 100 |
| Cc1cccc(-c2nn(C)c(Cl)c2C(=O)N2CCC3(CCN(CCC(C)(C)C)CC3)CC2)n1 [Example 189, (5-Chloro-1-methyl-3-(6-methylpyridin-2-yl)-1H-pyrazol-4-yl)(9-(3,3-dimethylbutyl)-3,9-diazaspiro[5.5]undecan-3-yl)methanone] | 500 to 1000 | < 100 |
| CCn1nc(-c2cc(C3CC3)on2)c(C(=O)N2CCC3(CCN(CCC(C)(C)C)CC3)CC2)c1Cl [Example 190, (5-Chloro-3-(5-cyclopropylisoxazol-3-yl)-1-ethyl-1H-pyrazol-4-yl)(9-(3,3-dimethylbutyl)-3,9-diazaspiro[5.5]undecan-3-yl)methanone] | 100 to 500 | < 100 |
| Cn1nc(-c2cc(C3CC3)on2)c(C(=O)N2CCC3(CCN(CCC(C)(C)C)CC3)CC2)c1Cl [Example 191, (5-Chloro-3-(5-cyclopropylisoxazol-3-yl)-1-methyl-1H-pyrazol-4-yl)(9-(3,3-dimethylbutyl)-3,9-diazaspiro[5.5]undecan-3-yl)methanone] | 100 to 500 | < 100 |
| CCn1nc(-c2cc(C(C)C)on2)c(C(=O)N2CCC3(CCN(CCC(C)(C)C)CC3)CC2)c1Cl [Example 192, (5-Chloro-1-ethyl-3-(5-isopropylisoxazol-3-yl)-1H-pyrazol-4-yl)(9-(3,3-dimethylbutyl)-3,9-diazaspiro[5.5]undecan-3-yl)methanone] | 100 to 500 | < 100 |
| Cc1cc(-c2nn(C)c(Cl)c2C(=O)N2CCCC3(CN(CCC(C)(C)C)C3)C2)no1 [Example 193, (5-Chloro-1-methyl-3-(5-methylisoxazol-3-yl)-1H-pyrazol-4-yl)(2-(3,3-dimethylbutyl)-2,6-diazaspiro[3.5]nonan-6-yl)methanone] | 500 to 1000 | < 100 |
| CCn1nc(-c2cc(C)on2)c(C(=O)N2CCCC3(CN(CCC(C)(C)C)C3)C2)c1Cl [Example 194, (5-Chloro-1-ethyl-3-(5-methylisoxazol-3-yl)-1H-pyrazol-4-yl)(2-(3,3-dimethylbutyl)-2,6-diazaspiro[3.5]nonan-6-yl)methanone] | 500 to 1000 | < 100 |
| CCn1nc(-c2ccon2)c(C(=O)N2CCCC3(CN(CCC(C)(C)C)C3)C2)c1Cl [Example 195, (5-Chloro-1-ethyl-3-(isoxazol-3-yl)-1H-pyrazol-4-yl)(2-(3,3-dimethylbutyl)-2,6-diazaspiro[3.5]nonan-6-yl)methanone] | 500 to 1000 | < 100 |
| CCn1cc(-c2nn(C)c(Cl)c2C(=O)N2CCC3(CCN(CCC(C)(C)C)CC3)CC2)cn1 [Example 196, (5-Chloro-1′-ethyl-1-methyl-1H,1′H-[3,4′-bipyrazol]-4-yl)(9-(3,3-dimethylbutyl)-3,9-diazaspiro[5.5]undecan-3-yl)methanone] | 500 to 1000 | < 100 |
| CCn1nc(-c2ccon2)c(C(=O)NC2CCC3(CC2)CN(CCC(C)(C)C)C3)c1Cl [Example 197, 5-Chloro-N-(2-(3,3-dimethylbutyl)-2-azaspiro[3.5]nonan-7-yl)-1-ethyl-3-(isoxazol-3-yl)-1H-pyrazole-4-carboxamide] | 100 to 500 | < 100 |
| CCn1nc(-c2cnn(C(C)C)c2)c(C(=O)N2CCC3(CCN(CCC(C)(C)C)CC3)CC2)c1Cl [Example 198, (5-Chloro-1-ethyl-1′-isopropyl-1H,1′H-[3,4′-bipyrazol]-4-yl)(9-(3,3-dimethylbutyl)-3,9-diazaspiro[5.5]undecan-3-yl)methanone] | 500 to 1000 | < 100 |
| CCn1nc(-c2cccc(C(F)(F)F)n2)c(C(=O)N2CCC3(CCN(CCC(C)(C)C)CC3)CC2)c1Cl [Example 199, (5-Chloro-1-ethyl-3-(6-(trifluoromethyl)pyridin-2-yl)-1H-pyrazol-4-yl)(9-(3,3-dimethylbutyl)-3,9-diazaspiro[5.5]undecan-3-yl)methanone] | 100 to 500 | < 100 |
| CCn1nc(-c2cc(C)on2)c(C(=O)N[C@H]2CC[C@H](NCCC(C)(C)C)CC2)c1Cl [Example 200, 5-Chloro-N-((1r,4r)-4-((3,3-dimethylbutyl)amino)cyclohexyl)-1-ethyl-3-(5-methylisoxazol-3-yl)-1H-pyrazole-4-carboxamide] | 500 to 1000 | < 100 |
| CCn1nc(-c2cc(C)on2)c(C(=O)N[C@H]2CC[C@@H](NCCC(C)(C)C)CC2)c1Cl [Example 201, 5-Chloro-N-((1s,4s)-4-((3,3-dimethylbutyl)amino)cyclohexyl)-1-ethyl-3-(5-methylisoxazol-3-yl)-1H-pyrazole-4-carboxamide] | 100 to 500 | 100 to 500 |
| CCn1nc(-c2cc(C)on2)c(C(=O)NC2CCCN(CCC(C)(C)C)C2)c1Cl (centres unmarked) [Example 202, 5-Chloro-N-(1-(3,3-dimethylbutyl)piperidin-3-yl)-1-ethyl-3-(5-methylisoxazol-3-yl)-1H-pyrazole-4-carboxamide] | 100 to 500 | 100 to 500 |
| CCn1nc(-c2cc(C)on2)c(C(=O)NCC2CCN(CCC(C)(C)C)CC2)c1Cl [Example 203, 5-Chloro-N-((1-(3,3-dimethylbutyl)piperidin-4-yl)methyl)-1-ethyl-3-(5-methylisoxazol-3-yl)-1H-pyrazole-4-carboxamide] | 100 to 500 | < 100 |
| CCn1nc(-c2cc(C)on2)c(C(=O)Nc2ccc3c(c2)CCN(CCC(C)(C)C)C3)c1Cl [Example 204, 5-Chloro-N-(2-(3,3-dimethylbutyl)-1,2,3,4-tetrahydroisoquinolin-6-yl)-1-ethyl-3-(5-methylisoxazol-3-yl)-1H-pyrazole-4-carboxamide] | < 100 | < 100 |
| CCn1nc(-c2cc(C)on2)c(C(=O)NCC2CCCN(CCC(C)(C)C)C2)c1Cl (centres unmarked) [Example 205, 5-Chloro-N-((1-(3,3-dimethylbutyl)piperidin-3-yl)methyl)-1-ethyl-3-(5-methylisoxazol-3-yl)-1H-pyrazole-4-carboxamide] | < 100 | < 100 |
